Test results published in ChEMBL document CHEMBL2046439, “Spectaflavoside A, a new potent iron chelating dimeric flavonol glycoside from the rhizomes of Zingiber spectabile Griff” (Bioorg Med Chem Lett, 2012).
Structures can show the parent of a compound that is named as a salt.

Experiments:
HepG2 = test: Antiproliferative activity against human HepG2 cells after 48 hrs by MTS assay; type: functional, cell-based; conditions: HepG2, 48 h
SK-MEL-5 = test: Antiproliferative activity against human SK-MEL-5 cells after 48 hrs by MTS assay; type: functional, cell-based; conditions: SK-MEL-5, 48 h
MCF7 = test: Antiproliferative activity against human MCF7 cells after 48 hrs by MTS assay; type: functional, cell-based; conditions: MCF7, 48 h
A549 = test: Antiproliferative activity against human A549 cells after 48 hrs by MTS assay; type: functional, cell-based; conditions: A549, 48 h
MDA-MB-231 = test: Antiproliferative activity against human MDA-MB-231 cells after 48 hrs by MTS assay; type: functional, cell-based; conditions: MDA-MB-231, 48 h
BXPC-3 = test: Antiproliferative activity against human BxPC3 cells after 48 hrs by MTS assay; type: functional, cell-based; conditions: BXPC-3, 48 h
[1] = Fe2+ chelating activity of the compound incubated for 5 mins prior to ferrozine-addition measured after 10 mins by spectrophotometry; type: functional; design: concentration or dose not given beside the values
HT-29 = test: Antiproliferative activity against human HT-29 cells after 48 hrs by MTS assay; type: functional, cell-based; conditions: HT-29, 48 h
DU-145 = test: Antiproliferative activity against human DU145 cells after 48 hrs by MTS assay; type: functional, cell-based; conditions: DU-145, 48 h

IC50 (HepG2) [µM]	IC50 (SK-MEL-5) [µM]	IC50 (MCF7) [µM]	IC50 (A549) [µM]	IC50 (MDA-MB-231) [µM]	IC50 (BXPC-3) [µM]	IC50 (HT-29) [µM]	IC50 (DU-145) [µM]	Compound	Activity [1] [%]
> 150	> 150	> 150	> 150	> 150	> 150	> 150	> 150	CC(=O)O[C@@H]1[C@@H](O)[C@@H](O)[C@H](Oc2c(-c3ccc(O)cc3)oc3cc(O)cc(O)c3c2=O)O[C@H]1C	29.1
> 150	> 150	> 150	> 150	> 150	113	> 150	> 150	CC(=O)O[C@@H]1[C@@H](O)[C@@H](OC(C)=O)[C@H](Oc2c(-c3ccc(O)cc3)oc3cc(O)cc(O)c3c2=O)O[C@H]1C	49.1
–	–	–	–	–	–	–	–	CC(=O)O[C@@H]1[C@@H](O)[C@@H](O)[C@H](Oc2c(-c3ccc(O)cc3)oc3cc(O)c(-c4c(O)cc(O)c5c(=O)c(O[C@@H]6O[C@@H](C)[C@H](OC(C)=O)[C@@H](O)[C@H]6O)c(-c6ccc(O)cc6)oc45)c(O)c3c2=O)O[C@H]1C	87.4
–	–	–	–	–	–	–	–	CC(=O)O[C@@H]1[C@@H](O)[C@H](C)O[C@@H](Oc2c(-c3ccc(O)cc3)oc3cc(O)cc(O)c3c2=O)[C@@H]1OC(C)=O	52.2
–	–	–	–	–	–	–	–	CC(=O)O[C@@H]1[C@@H](OC(C)=O)[C@@H](O)[C@H](Oc2c(-c3ccc(O)cc3)oc3cc(O)cc(O)c3c2=O)O[C@H]1C	55.4
–	–	–	–	–	–	–	–	O=c1c(O)c(-c2ccc(O)cc2)oc2cc(O)cc(O)c12	12.1
59.4	50.4	65.2	62.6	64.7	11.4	15.9	38.2	COc1cc(/C=C/C(=O)CC(=O)/C=C/c2ccc(O)c(OC)c2)ccc1O [CURCUMIN]	37.9
80	61.4	75.3	74.1	87.5	24.1	19.4	48.1	COc1cc(/C=C/C(O)=C/C(=O)/C=C/c2ccc(O)cc2)ccc1O [DEMETHOXYCURCUMIN]	50.9
0.16	1.74	24.1	2.36	31.5	1.13	11.2	4.25	CC[C@]1(O)C[C@@H]2CN(CCc3c([nH]c4ccccc34)[C@@](C(=O)OC)(c3cc4c(cc3OC)N(C)[C@H]3[C@@](O)(C(=O)OC)[C@H](OC(C)=O)[C@]5(CC)C=CCN6CC[C@]43[C@@H]65)C2)C1 [VINBLASTINE SULFATE]	–
